# According to patent publication US8959984B2, “Proteome-wide quantification of small molecule binding to cellular target proteins” (priority 2007, dated 2015):
# Where “and” joins values, the source holds several entries; their conditions need not be identical. Identical values can stand only once.
# Key:
# SPR = SPR (Homo sapiens, UniProt P35270)
# RPL27A = RPL27A (Homo sapiens, UniProt P46776)
# [1] = target: T1, p38a (MAPK14, IPI00002857) (Homo sapiens, UniProt Q16539); assay: gefitinib competition against AX14596 beads (HeLa lysate, SILAC MS); assay type: binding
# EGFR = target: T2, EGFR (Homo sapiens, UniProt P00533); assay: binding to AX14596 beads (HeLa lysate, SILAC MS)
# T2 construct: endogenous in cells; host or cells: HeLa S3
# ALK2 (ACVR1) = target: T3, ALK2 (ACVR1) (Homo sapiens, UniProt Q04771); assay: binding to AX14596 beads (HeLa lysate, SILAC MS)
# T3 sequence (Q04771 21-509): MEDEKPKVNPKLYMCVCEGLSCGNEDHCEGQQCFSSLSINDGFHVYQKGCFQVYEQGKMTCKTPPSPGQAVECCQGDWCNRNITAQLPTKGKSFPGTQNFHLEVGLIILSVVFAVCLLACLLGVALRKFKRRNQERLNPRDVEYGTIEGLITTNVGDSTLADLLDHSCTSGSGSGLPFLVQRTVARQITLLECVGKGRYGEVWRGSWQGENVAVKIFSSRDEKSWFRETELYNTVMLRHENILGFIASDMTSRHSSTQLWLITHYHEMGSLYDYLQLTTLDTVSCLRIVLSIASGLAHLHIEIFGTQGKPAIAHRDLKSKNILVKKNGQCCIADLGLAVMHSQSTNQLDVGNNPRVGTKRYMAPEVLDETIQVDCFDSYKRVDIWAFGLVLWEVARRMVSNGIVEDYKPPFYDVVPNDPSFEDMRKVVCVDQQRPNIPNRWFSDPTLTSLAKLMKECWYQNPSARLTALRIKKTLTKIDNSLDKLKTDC
# SNRPE = SNRPE (Homo sapiens, UniProt P62304); assay: binding to AX14596 beads (HeLa lysate, SILAC MS)
# BRK (PTK6) = target: T4, BRK (PTK6) (Homo sapiens, UniProt Q13882); assay: binding to AX14596 beads (HeLa lysate, SILAC MS)
# T4 construct: endogenous in cells; host or cells: HeLa S3
# JNK2 (MAPK9) = JNK2 (MAPK9) (Homo sapiens, UniProt P45984); assay: binding to AX14596 beads (HeLa lysate, SILAC MS)
# CDA = target: T5, CDA (Homo sapiens, UniProt P32320); assay: binding to AX14596 beads (HeLa lysate, SILAC MS)
# T5 construct: endogenous in cells; host or cells: HeLa S3
# [2] = target: T1, p38a (MAPK14, IPI00002857); assay: binding to AX14596 beads (HeLa lysate, SILAC MS)
# T4 sequence (Q13882 whole entry): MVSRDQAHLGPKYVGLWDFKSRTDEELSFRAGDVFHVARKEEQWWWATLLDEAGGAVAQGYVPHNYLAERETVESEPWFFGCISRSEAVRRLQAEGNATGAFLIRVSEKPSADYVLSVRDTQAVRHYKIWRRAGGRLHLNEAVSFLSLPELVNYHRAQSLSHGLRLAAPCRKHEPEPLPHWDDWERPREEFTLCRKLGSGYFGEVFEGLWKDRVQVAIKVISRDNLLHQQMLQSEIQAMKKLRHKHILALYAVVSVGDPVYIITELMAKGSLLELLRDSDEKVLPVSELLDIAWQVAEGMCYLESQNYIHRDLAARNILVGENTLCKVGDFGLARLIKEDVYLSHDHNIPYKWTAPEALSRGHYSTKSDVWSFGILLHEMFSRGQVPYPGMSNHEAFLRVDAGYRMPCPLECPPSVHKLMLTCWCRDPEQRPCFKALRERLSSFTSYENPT
# T5 sequence (P32320 whole entry): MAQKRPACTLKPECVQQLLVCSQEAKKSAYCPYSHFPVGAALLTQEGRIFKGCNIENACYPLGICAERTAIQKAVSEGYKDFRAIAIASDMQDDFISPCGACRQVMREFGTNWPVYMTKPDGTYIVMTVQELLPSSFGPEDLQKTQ
# JNK2 (MAPK9), sequence (P45984 whole entry): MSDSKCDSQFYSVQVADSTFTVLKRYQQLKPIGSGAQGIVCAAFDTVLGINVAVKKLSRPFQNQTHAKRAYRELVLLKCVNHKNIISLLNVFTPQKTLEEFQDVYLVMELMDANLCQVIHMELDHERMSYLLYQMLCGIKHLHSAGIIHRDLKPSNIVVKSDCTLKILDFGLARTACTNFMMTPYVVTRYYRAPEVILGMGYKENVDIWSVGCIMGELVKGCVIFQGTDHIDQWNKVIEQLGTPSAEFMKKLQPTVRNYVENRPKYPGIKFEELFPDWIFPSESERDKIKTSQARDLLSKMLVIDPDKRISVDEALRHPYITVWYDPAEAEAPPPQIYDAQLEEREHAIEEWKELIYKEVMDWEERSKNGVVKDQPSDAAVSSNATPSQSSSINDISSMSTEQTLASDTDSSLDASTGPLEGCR
# T2 sequence (P00533 25-1210): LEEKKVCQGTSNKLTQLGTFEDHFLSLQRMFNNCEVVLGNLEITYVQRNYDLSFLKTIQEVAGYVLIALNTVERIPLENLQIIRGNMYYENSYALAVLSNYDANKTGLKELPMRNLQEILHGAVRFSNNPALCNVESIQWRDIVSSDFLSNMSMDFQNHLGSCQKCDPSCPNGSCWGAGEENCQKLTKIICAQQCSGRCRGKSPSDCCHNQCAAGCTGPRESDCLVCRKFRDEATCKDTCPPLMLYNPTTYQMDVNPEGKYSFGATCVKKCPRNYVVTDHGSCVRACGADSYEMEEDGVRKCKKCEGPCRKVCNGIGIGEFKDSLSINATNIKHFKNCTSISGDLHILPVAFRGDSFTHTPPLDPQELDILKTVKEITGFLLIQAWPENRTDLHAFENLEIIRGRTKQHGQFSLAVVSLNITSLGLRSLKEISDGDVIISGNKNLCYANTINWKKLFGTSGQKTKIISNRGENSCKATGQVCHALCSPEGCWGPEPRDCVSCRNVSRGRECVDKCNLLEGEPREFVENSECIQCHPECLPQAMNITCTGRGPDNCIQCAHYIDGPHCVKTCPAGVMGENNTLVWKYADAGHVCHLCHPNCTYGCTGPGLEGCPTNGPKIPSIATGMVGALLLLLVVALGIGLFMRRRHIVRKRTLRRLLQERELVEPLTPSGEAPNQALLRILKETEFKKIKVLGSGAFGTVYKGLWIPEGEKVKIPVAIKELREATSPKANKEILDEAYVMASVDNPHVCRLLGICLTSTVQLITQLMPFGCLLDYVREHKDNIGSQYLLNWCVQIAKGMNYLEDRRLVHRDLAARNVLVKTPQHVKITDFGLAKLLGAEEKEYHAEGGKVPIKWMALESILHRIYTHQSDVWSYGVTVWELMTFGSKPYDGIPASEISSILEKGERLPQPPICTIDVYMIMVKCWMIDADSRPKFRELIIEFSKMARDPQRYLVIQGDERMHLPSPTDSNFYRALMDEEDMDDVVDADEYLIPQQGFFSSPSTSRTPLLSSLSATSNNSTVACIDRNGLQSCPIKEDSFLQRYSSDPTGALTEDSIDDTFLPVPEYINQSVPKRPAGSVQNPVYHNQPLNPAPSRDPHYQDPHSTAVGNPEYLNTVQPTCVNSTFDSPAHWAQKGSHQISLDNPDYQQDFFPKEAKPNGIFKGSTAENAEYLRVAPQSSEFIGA
# T1 sequence (Q16539 whole entry): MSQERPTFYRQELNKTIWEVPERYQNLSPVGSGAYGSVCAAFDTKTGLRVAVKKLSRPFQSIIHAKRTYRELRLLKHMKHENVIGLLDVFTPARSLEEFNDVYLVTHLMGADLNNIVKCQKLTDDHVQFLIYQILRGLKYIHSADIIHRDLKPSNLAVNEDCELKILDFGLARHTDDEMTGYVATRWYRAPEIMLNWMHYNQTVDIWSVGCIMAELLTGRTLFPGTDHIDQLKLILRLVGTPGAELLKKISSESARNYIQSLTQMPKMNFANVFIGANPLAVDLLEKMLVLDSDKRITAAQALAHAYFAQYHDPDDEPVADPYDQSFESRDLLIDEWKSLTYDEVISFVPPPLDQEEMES
# SPR, sequence (P35270 whole entry): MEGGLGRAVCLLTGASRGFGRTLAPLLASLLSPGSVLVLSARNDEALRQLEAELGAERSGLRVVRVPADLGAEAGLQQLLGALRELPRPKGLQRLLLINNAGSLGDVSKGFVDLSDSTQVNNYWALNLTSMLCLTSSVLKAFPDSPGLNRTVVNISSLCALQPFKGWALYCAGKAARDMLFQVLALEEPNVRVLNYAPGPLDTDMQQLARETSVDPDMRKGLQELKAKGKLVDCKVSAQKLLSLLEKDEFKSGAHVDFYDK
# SNRPE, sequence (P62304 whole entry): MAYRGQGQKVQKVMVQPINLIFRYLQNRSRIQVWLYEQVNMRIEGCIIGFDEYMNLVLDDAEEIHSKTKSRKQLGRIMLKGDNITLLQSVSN
compound,measurement,setting,value
COc1cc2ncnc(Nc3ccc(F)c(Cl)c3)c2cc1OCCCN1CCOCC1 [gefitinib],rAVERAGE (10 nM/0 nM Gef.),SPR,1.04
same,rAVERAGE (100 nM/0 nM Gef.),SPR,1.10
same,rAVERAGE (1000 nM/0 nM Gef.),SPR,1.01
same,rAVERAGE (10000 nM/0 nM Gef.),SPR,0.77
same,rAVERAGE (10 nM/0 nM Gef.),RPL27A,0.87
same,rAVERAGE (100 nM/0 nM Gef.),RPL27A,1.05
same,rAVERAGE (1000 nM/0 nM Gef.),RPL27A,0.81
same,rAVERAGE (10000 nM/0 nM Gef.),RPL27A,1.03
same,rAVERAGE (10 nM/0 nM Gef.),[1],0.88
same,rAVERAGE (100 nM/0 nM Gef.),[1],1.04
same,rAVERAGE (1000 nM/0 nM Gef.),[1],0.92
same,rAVERAGE (10000 nM/0 nM Gef.),[1],0.64
COc1cc2ncnc(Nc3ccc(F)c(Cl)c3)c2cc1OCCCN [AX14596],Ki,EGFR,44 µM and 44.5 µM
same,r (3 mg/1 mg lysate),EGFR,2.65
same,r (5 h/2.5 h inc. time),EGFR,0.90
same,rAVERAGE (2. inc/1. inc),EGFR,0.31
same,rAVERAGE (control/1. inc),EGFR,0.03
same,% BOUND,EGFR; bound to AX14596 beads,69%
same,Ki,ALK2 (ACVR1),202 µM
same,r (3 mg/1 mg lysate),ALK2 (ACVR1),2.57
same,r (5 h/2.5 h inc. time),ALK2 (ACVR1),1.17
same,rAVERAGE (2. inc/1. inc),ALK2 (ACVR1),0.67
same,rAVERAGE (control/1. inc),ALK2 (ACVR1),0.15
same,Ki,SNRPE,106 µM
same,r (3 mg/1 mg lysate),SNRPE,2.57
same,r (5 h/2.5 h inc. time),SNRPE,1.88
same,rAVERAGE (2. inc/1. inc),SNRPE,0.51
same,rAVERAGE (control/1. inc),SNRPE,0.07
same,Ki,BRK (PTK6),45 µM and 45.4 µM
same,r (3 mg/1 mg lysate),BRK (PTK6),2.56
same,r (5 h/2.5 h inc. time),BRK (PTK6),0.96
same,rAVERAGE (2. inc/1. inc),BRK (PTK6),0.31
same,rAVERAGE (control/1. inc),BRK (PTK6),0.02
same,% BOUND,BRK (PTK6); bound to AX14596 beads,69%
same,Ki,JNK2 (MAPK9),110 µM
same,r (3 mg/1 mg lysate),JNK2 (MAPK9),2.58
same,r (5 h/2.5 h inc. time),JNK2 (MAPK9),0.95
same,rAVERAGE (2. inc/1. inc),JNK2 (MAPK9),0.52
same,rAVERAGE (control/1. inc),JNK2 (MAPK9),0.03
same,% BOUND,JNK2 (MAPK9); bound to AX14596 beads,48%
same,Ki,CDA,402 µM
same,r (3 mg/1 mg lysate),CDA,3.09
same,rAVERAGE (2. inc/1. inc),CDA,0.80
same,rAVERAGE (control/1. inc),CDA,0.09
same,Ki,[2],332 µM
same,r (3 mg/1 mg lysate),[2],2.74
same,r (5 h/2.5 h inc. time),[2],1.15
same,rAVERAGE (2. inc/1. inc),[2],0.77
same,rAVERAGE (control/1. inc),[2],0.06
